Assays:
Conditions in all cases: incubation time: 72 h
[1] = test system: BT-474; assay: normalised viability (% of control), CellTiter-Blue; higher = more viable cells (about 100 = DMSO control)
Method in brief: (§1)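 Each entry is normalised viability at a single listed concentration within a series. It comes from breast cancer cell lines incubated 72 h with compound in 384-well plates, then measured with CellTiter-Blue fluorescence at 560/590 nm. Every plate was normalised between vehicle (100) and a positive kill control (0).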

[2] = test system: CAL-120; assay: as above
Method in brief: as §1

[3] = test system: CAL-51; assay: as above
Method in brief: as §1

[4] = test system: CAL-85-1; assay: as above
Method in brief: as §1

[5] = test system: HDQ-P1; assay: as above
Method in brief: as §1

[6] = test system: Hs578T; assay: as above
Method in brief: as §1

[7] = test system: MDA-MB-231; assay: as above
Method in brief: as §1

[8] = test system: MDA-MB-453; assay: as above
Method in brief: as §1

[9] = test system: BT-474; assay: drug sensitivity score (DSS), CellTiter-Glo (DSS (AUC-based score)); higher = stronger drug effect (viability inhibition or cytotoxicity); extreme values may be limits of the assay
Method in brief: (§2)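 The area under the fitted dose-response curve was used to calculate the drug sensitivity score. Cells from breast cancer lines were incubated for 72 h in 384-well plates with compound at 5 concentrations spaced 10-fold over a 10,000-fold range specific to each compound. Plates were read for CellTox Green and then CellTiter-Glo, and normalised to 0.1 % DMSO and a positive kill control.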

[10] = test system: BT-549; assay: as above
Method in brief: as §2

[11] = test system: CAL-120; assay: as above
Method in brief: as §2

[12] = test system: CAL-148; assay: as above
Method in brief: as §2

[13] = test system: CAL-51; assay: as above
Method in brief: as §2

[14] = test system: CAL-85-1; assay: as above
Method in brief: as §2

[15] = test system: DU-4475; assay: as above
Method in brief: as §2

[16] = test system: HCC1143; assay: as above
Method in brief: as §2

[17] = test system: HCC1599; assay: as above
Method in brief: as §2

[18] = test system: HCC1937; assay: as above
Method in brief: as §2

[19] = test system: HDQ-P1; assay: as above
Method in brief: as §2

[20] = test system: Hs578T; assay: as above
Method in brief: as §2

[21] = test system: MCF-10A; assay: as above
Method in brief: as §2

[22] = test system: MDA-MB-231; assay: as above
Method in brief: as §2

[23] = test system: MDA-MB-436; assay: as above
Method in brief: as §2

[24] = test system: MDA-MB-453; assay: as above
Method in brief: as §2

[25] = test system: MDA-MB-468; assay: as above
Method in brief: as §2

[26] = test system: MFM-223; assay: as above
Method in brief: as §2

[27] = test system: SK-BR-3; assay: as above
Method in brief: as §2

Structure (SMILES) | normalised viability ([1]; 10 nM) [%] | drug sensitivity score [9] | drug sensitivity score [10] | drug sensitivity score [11] | drug sensitivity score [12] | drug sensitivity score [13] | drug sensitivity score [14] | drug sensitivity score [15] | drug sensitivity score [16] | drug sensitivity score [17] | drug sensitivity score [18] | drug sensitivity score [19] | drug sensitivity score [20] | drug sensitivity score [21] | drug sensitivity score [22] | drug sensitivity score [23] | drug sensitivity score [24] | drug sensitivity score [25] | drug sensitivity score [26] | drug sensitivity score [27] | further results
COc1ncc(-c2ccc3nccc(-c4ccnnc4)c3c2)cc1NS(=O)(=O)c1ccc(F)cc1F | 64.7 | 11.2 | 16.8 | 13 | 12.2 | 15.8 | 16.4 | 7.12 | 13.3 | 9.77 | 10.6 | 19.4 | 14 | 17.5 | 10.3 | 11.6 | 19.4 | 13.9 | 14.3 | 20.6 | normalised viability ([2]; 10 nM): 60.2%; normalised viability ([3]; 1 nM): 85.7%; normalised viability ([4]; 1 nM): 88.8%; normalised viability ([5]; 1 nM): 97.9%; normalised viability ([6]; 10 nM): 76.8%; normalised viability ([7]; 10 nM): 80%; normalised viability ([8]; 1 nM): 89.3%
CS(=O)(=O)OCCCCOS(C)(=O)=O [Busulfan] |  | 0.000307 | 0 | 0 | 0 | 0 | 0 | 0 | 0 | 0 | 0 | 0 | 0 | 0 | 0 | 0 | 0 | 0 | 0 | 0 | normalised viability ([1]; 1000 nM): 110%; normalised viability ([2]; 1000 nM): 113%; normalised viability ([3]; 100 nM): 95.3%; normalised viability ([4]; 100 nM): 115%; normalised viability ([5]; 100 nM): 98.1%; normalised viability ([6]; 1000 nM): 91.2%; normalised viability ([7]; 1000 nM): 99.5%; normalised viability ([8]; 100 nM): 102%
CC(C)C[C@H](NC(=O)[C@H](Cc1ccccc1)NC(=O)c1cnccn1)B(O)O [Bortezomib] | 50.8 | 24.4 | 28.8 | 19.9 | 14.4 | 18.3 | 28.4 | 17.5 | 19.3 | 9.67 | 12.9 | 22.6 | 22.8 | 9.83 | 22.4 | 26 | 16.8 | 30.9 | 27.1 | 26.4 | normalised viability ([2]; 10 nM): 27.3%; normalised viability ([3]; 1 nM): 99.9%; normalised viability ([4]; 1 nM): 106%; normalised viability ([5]; 1 nM): 83.8%; normalised viability ([6]; 10 nM): 87.6%; normalised viability ([7]; 10 nM): 16.2%; normalised viability ([8]; 1 nM): 105%
CCCC(CCC)C(=O)O [Valproic acid] |  | 0 | 0 | 0 | 0 | 1.6 | 0 | 0 | 0 | 0 | 0 | 0 | 0 | 0 | 0 | 0 | 1.51 | 0 | 0 | 0 | normalised viability ([1]; 100 nM): 113%; normalised viability ([2]; 100 nM): 110%; normalised viability ([3]; 10 nM): 97.8%; normalised viability ([4]; 10 nM): 95.7%; normalised viability ([5]; 10 nM): 139%; normalised viability ([6]; 100 nM): 111%; normalised viability ([7]; 100 nM): 110%; normalised viability ([8]; 10 nM): 94.4%
C#Cc1cccc(Nc2ncnc3cc(OC)c(OCCCCCCC(=O)NO)cc23)c1 [CUDC-101] |  | 7.85 | 9 | 5.5 | 10.1 | 12.7 | 19.7 | 9.19 | 11.1 | 11.4 | 8.33 | 7.15 | 8.01 | 17.5 | 13.1 | 6.33 | 21.1 | 18.1 | 15 | 14.6 | normalised viability ([1]; 100 nM): 89.2%; normalised viability ([2]; 100 nM): 67.1%; normalised viability ([3]; 10 nM): 113%; normalised viability ([4]; 10 nM): 93%; normalised viability ([5]; 10 nM): 86.3%; normalised viability ([6]; 100 nM): 70.2%; normalised viability ([7]; 100 nM): 91.2%; normalised viability ([8]; 10 nM): 87.4%
C[C@@H]1C=C2C(=O)O[C@@H]3CC[C@H](C1)[C@]23O [Galiellalactone] |  | 0 | 2.89 | 0 | 0 | 4.43 | 1.79 | 0 | 0 | 0 | 0 | 0 | 0 | 0 | 0 | 0 | 0 | 6.03 | 0 | 0 | normalised viability ([1]; 500 nM): 136%; normalised viability ([2]; 500 nM): 85.6%; normalised viability ([3]; 50 nM): 106%; normalised viability ([4]; 50 nM): 97.4%; normalised viability ([5]; 50 nM): 113%; normalised viability ([6]; 500 nM): 101%; normalised viability ([7]; 500 nM): 91.8%; normalised viability ([8]; 50 nM): 110%

Reference: the supplement of paper PMC4862054
